Among the data in PubChem BioAssay (NCI) are GI50 and TGI values, retold here.

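Interpolation was linear, between the two tested concentrations surrounding the appropriate level; five concentrations were tested over 48 hours in 96-well plates. Here, GI50 denotes the concentration required for 50% inhibition of growth. Definition used: TGI = concentration required for complete inhibition of growth.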

Among the test systems are K-562 leukemia; A549 NSCLC; HCT-15 colon; NCI-H460 lung; SNB-19 CNS; NCI-H226 lung; KM12 colon; MDA-MB-231 breast; MCF7 breast; CAKI-1 renal.
Assay in all cases: inhibition of tumour cell growth, NCI panel, 48 h

Turning to `Cc1cc(N(CCNc2ccnc3cc(Cl)ccc23)Cc2ccc3c(c2)OCO3)nc(N2CCN(C)CC2)n1`, the GI50 in the test with K-562 leukemia was 1160 nM; with A549 NSCLC, 3.51 µM; with HCT-15 colon, 1550 nM; in the test with NCI-H460 lung it was 2650 nM; with SNB-19 CNS it was 3.78 µM; in the test with NCI-H226 lung, 17.7 µM. Also, the GI50 in the test on KM12 colon was 4.42 µM; in the test with MDA-MB-231 breast, 1770 nM; in the test with MCF7 breast it was 2400 nM. Besides, the TGI with K-562 leukemia is 3.93 µM; with A549 NSCLC, 12.8 µM; with HCT-15 colon, 3.82 µM; in the test with NCI-H460 lung it was 7.86 µM; in the test on SNB-19 CNS, 13 µM; in the test with NCI-H226 lung, 36.8 µM. In addition, the TGI in the test with KM12 colon came to 17.7 µM; in the test on MDA-MB-231 breast it was 4.32 µM; in the test with MCF7 breast, 10.9 µM.
As to `COC(=O)C1=C(OC(=O)c2ccc(Cl)cc2)C(C(=O)OC)[C@@]2(O)[C@@H](C(=O)OC)C(c3ccccc3C(F)(F)F)C[C@@H]1[C@@H]2C(=O)OC` (stereo not given in full), the GI50 in the test with K-562 leukemia was 3360 nM; in the test on A549 NSCLC it was 3.59 µM; in the test with HCT-15 colon, 2870 nM; in the test with NCI-H460 lung it was 6530 nM; with SNB-19 CNS, 6.44 µM; in the test with KM12 colon it was 23.9 µM. The GI50 in the test with MDA-MB-231 breast was 2070 nM; in the test on MCF7 breast, 10700 nM; in the test with CAKI-1 renal it was 13.9 µM. The TGI is above 100 µM in the test on K-562 leukemia; 28.8 µM in the test on A549 NSCLC; 14.6 µM in the test with HCT-15 colon; 77.1 µM in the test on NCI-H460 lung; above 100 µM in the test on SNB-19 CNS; 64.2 µM in the test on KM12 colon. The TGI was determined as 6.19 µM in the test with MDA-MB-231 breast, 87.5 µM with MCF7 breast and 36.1 µM in the test with CAKI-1 renal.
With `Cc1ccc(C(=O)/C(=C/c2ccc([N+](=O)[O-])cc2)S(=O)Cc2ccccc2)cc1` (stereo not given), the GI50 in the test with K-562 leukemia is 623 nM; in the test on A549 NSCLC, 2.26 µM; in the test with HCT-15 colon it was 1070 nM; in the test with NCI-H460 lung, 1830 nM; with SNB-19 CNS, 1.55 µM; in the test on NCI-H226 lung, 1.71 µM. Further, the GI50 in the test on KM12 colon is 1.56 µM; with MDA-MB-231 breast it was 1190 nM; with MCF7 breast it was 372 nM. Also, the TGI in the test on K-562 leukemia is 12.4 µM; in the test on A549 NSCLC it was 5.66 µM; in the test with HCT-15 colon it was 2.59 µM; in the test with NCI-H460 lung it was 4.92 µM; with SNB-19 CNS, 3.07 µM; with NCI-H226 lung it was 4.72 µM. For the same compound, the values for the TGI in the test with KM12 colon, in the test on MDA-MB-231 breast and with MCF7 breast were 3.4 µM, 2.77 µM and 2.2 µM, respectively.
For `COc1cc(-c2oc3ccccc3c(=O)c2O)cc(OC)c1OC`, the TGI in the test on K-562 leukemia, in the test on A549 NSCLC, with HCT-15 colon, with NCI-H460 lung, with SNB-19 CNS and in the test on KM12 colon was above 100 µM each time. Besides, the TGI in the test with MDA-MB-231 breast, with MCF7 breast and in the test on CAKI-1 renal was above 100 µM each time.
`Clc1ccccc1NN(Cc1ccccn1)c1ccccc1Cl`: the TGI in the test on K-562 leukemia was 68.7 µM; in the test on A549 NSCLC, 37.2 µM; in the test with HCT-15 colon it was above 100 µM; in the test with SNB-19 CNS, 79.7 µM; in the test with NCI-H226 lung, 31.6 µM; in the test with KM12 colon it was 32.9 µM. For the same compound, the TGI with MDA-MB-231 breast was 57.4 µM; in the test with MCF7 breast, above 100 µM; with CAKI-1 renal, 91.9 µM.
Consider `COc1cc(-c2csc(NC(=O)c3cc(C(F)(F)F)cc(C(F)(F)F)c3)n2)cc(OC)c1OC`, for which the GI50 is 2750 nM in the test with K-562 leukemia; 2.58 µM in the test with A549 NSCLC; 2710 nM with HCT-15 colon; 2970 nM in the test with NCI-H460 lung; 3.89 µM in the test with SNB-19 CNS; 2.86 µM with KM12 colon. For the same compound, the GI50 in the test on MDA-MB-231 breast was 2720 nM; with MCF7 breast it was 2160 nM; in the test on CAKI-1 renal it was 2.63 µM. Further, the TGI in the test on K-562 leukemia, with A549 NSCLC, in the test on HCT-15 colon, in the test on NCI-H460 lung, in the test on SNB-19 CNS and in the test with KM12 colon was above 100 µM throughout. The TGI with MDA-MB-231 breast, in the test with MCF7 breast and in the test with CAKI-1 renal was above 100 µM each time.
On to `CC(C)N(C(C)C)[PH+]1O[PH+](N(C(C)C)C(C)C)O[PH+](N(C(C)C)C(C)C)O[PH+](N(C(C)C)C(C)C)O[PH+](N(C(C)C)C(C)C)O1.[C-]#[O+].[C-]#[O+].[C-]#[O+].[C-]#[O+].[C-]#[O+].[C-]#[O+].[C-]#[O+].[Cr].[Cr]` (stereo not given), for which the GI50 in the test on K-562 leukemia is above 100000 nM; in the test on A549 NSCLC, above 100 µM; in the test on HCT-15 colon, above 100000 nM; in the test with NCI-H460 lung, above 100000 nM; in the test with SNB-19 CNS, above 100 µM; with NCI-H226 lung it was above 100 µM. The GI50 in the test with KM12 colon and in the test on CAKI-1 renal was above 100 µM in each case. Further, the TGI in the test with K-562 leukemia, in the test on A549 NSCLC, with HCT-15 colon, in the test with NCI-H460 lung, in the test with SNB-19 CNS and in the test with NCI-H226 lung was above 100 µM throughout. The TGI in the test with KM12 colon and in the test on CAKI-1 renal was above 100 µM in each case.
Consider `O=C(C(=O)c1ccc(Cc2ccc(C(=O)C(=O)c3ccccc3)cc2)cc1)c1ccccc1`, for which the TGI in the test with K-562 leukemia, in the test on A549 NSCLC, in the test on HCT-15 colon, in the test on NCI-H460 lung, in the test with SNB-19 CNS and with NCI-H226 lung was above 100 µM throughout. For the same compound, the TGI with KM12 colon and with CAKI-1 renal was above 100 µM each time.
Take `COC(=O)c1nc(NN)[nH]c(=O)c1CCCCCc1c(C(=O)OC)[nH]c(NN)cc1=O`: the TGI in the test with K-562 leukemia, in the test with A549 NSCLC, in the test on HCT-15 colon, in the test on NCI-H460 lung, in the test on SNB-19 CNS and with NCI-H226 lung was above 100 µM throughout. Further, the TGI with KM12 colon and in the test with CAKI-1 renal was above 100 µM each time.
Consider `O=[N+]([O-])c1ccc(N=Nc2c(O)[nH]c3ccc([N+](=O)[O-])cc23)cc1`, for which the TGI with K-562 leukemia was above 100 µM; in the test with A549 NSCLC, 32.4 µM; in the test on HCT-15 colon, above 100 µM; in the test with NCI-H460 lung, 26.4 µM; in the test with SNB-19 CNS, 40.5 µM; in the test on NCI-H226 lung, 7 µM. Moreover, the TGI in the test with KM12 colon is 30.8 µM; in the test on CAKI-1 renal, above 100 µM.
